Data published in patent US10208015B2, “Aryl-triazolyl pyridines as pest control agents” (BAYER ANIMAL HEALTH GMBH, priority 2014, dated 2019).
Read-outs that look alike come from different tables or passages of the source.

How the values were obtained:
[1] = logP by HPLC on reversed-phase column (C18), EEC Directive 79/831 Annex V.A8; assay type: physicochemical; details: for logP: HPLC, C18, acetonitrile (0.1% formic acid)/water (0.09% formic acid) gradient
Ctenocephalides felis = Ctenocephalides felis oral test; assay type: in vivo; details: application rate 100 ppm in citrated cattle blood, after 2 days
Text: Ctenocephalides felis—Oral Test • Solvent: dimethyl sulphoxide […] Dilution with citrated cattle blood gives the desired concentration. About 20 unfed adult cat fleas (Ctenocephalides felis) are placed into a chamber which is closed at the top and bottom with gauze. A metal cylinder whose bottom end is closed with parafilm is placed onto the chamber. The cylinder contains the blood/active compound preparation, which can be imbibed by the fleas through the parafilm membrane.

Boophilus microplus = Boophilus microplus injection test; assay type: in vivo; details: application rate 20 μg/animal, assessed after 7 days
Protocol: Boophilus microplus—Injection Test • Solvent: dimethyl sulphoxide […] The animals are transferred into dishes and kept in a climate-controlled room. Efficacy is assessed after 7 days by laying of fertile eggs. Eggs which are not visibly fertile are stored in a climate-controlled cabinet until the larvae hatch after about 42 days.

Lucilia cuprina = Lucilia cuprina test; assay type: in vivo; details: application rate 100 ppm, L1 larvae, after 2 days
Protocol: (§1) • Solvent: dimethyl sulphoxide
(§2) To produce a suitable preparation of active compound, 10 mg of active compound are mixed with 0.5 ml of dimethyl sulphoxide, and the concentrate is diluted with water to the desired concentration.
About 20 L1 larvae of the Australian sheep blowfly (Lucilia cuprina) are transferred into a test vessel containing minced horsemeat and the active compound preparation of the desired concentration.
After 2 days, the kill in % is determined. 100% means that all the larvae have been killed; 0% means that no larvae have been killed.

Musca domestica = Musca domestica test; assay type: in vivo; details: application rate 100 ppm, adult houseflies, after 2 days
Protocol: as §1, §2
Vessels containing a sponge treated with sugar solution and the active compound preparation of the desired concentration are populated with 10 adult houseflies (Musca domestica).
After 2 days, the kill in % is determined. 100% means that all of the flies have been killed; 0% means that none of the flies have been killed.

| SMILES | log P (HPLC-MS) [1] | log P (HPLC-MS) ([1]; HPLC-MS method a)) | logP [1] | efficacy (kill in %) (Ctenocephalides felis) [%] | efficacy (laying of fertile eggs) (Boophilus microplus) [%] | efficacy (kill in %) (Lucilia cuprina) [%] | efficacy (kill in %) (Musca domestica) [%] |
| --- | --- | --- | --- | --- | --- | --- | --- |
| CCc1cc(C(F)(C(F)(F)F)C(F)(F)F)cc(Br)c1N [2-bromo-6-ethyl-4-heptafluoroisopropylaniline] | 4.38 |  |  |  |  |  |  |
| CCc1cc(C(F)(C(F)(F)F)C(F)(F)F)cc(Cl)c1N [2-chloro-6-ethyl-4-heptafluoroisopropylaniline] |  | 4.67 |  |  |  |  |  |
| Cc1cc(C(F)(C(F)(F)F)C(F)(F)F)cc(C(F)(F)F)c1N [4-heptafluoroisopropyl-2-methyl-6-trifluoromethylaniline] |  | 4.67 |  |  |  |  |  |
| COc1ncc(-c2cn(-c3c(Cl)cc(C(F)(C(F)(F)F)C(F)(F)F)cc3Cl)nn2)cc1C(=O)NC1CC1 [Example 10] |  |  | 4.4 | 100 | 100 | 95 |  |
| CCc1cc(C(F)(C(F)(F)F)C(F)(F)F)cc(C)c1-n1cc(-c2cnc(Cl)c(C(=O)NCC(F)(F)F)c2)nn1 [Example 23] |  |  | 4.5 | 100 | 100 | 100 |  |
| CCc1cc(C(F)(C(F)(F)F)C(F)(F)F)cc(C)c1-n1cc(-c2cnc(Cl)c(C(=O)NC(C)C)c2)nn1 [Example 24] |  |  | 4.4 | 100 | 100 |  |  |
| Cc1cc(C(F)(C(F)(F)F)C(F)(F)F)cc(Br)c1-n1cc(-c2cnc(Cl)c(C(=O)NCC(F)(F)F)c2)nn1 [Example 26] |  |  | 4.3 | 100 | 100 | 100 | 100 |
| O=C(NCC(F)(F)F)c1cc(-c2cn(-c3c(Cl)cc(-c4ccccc4)cc3Cl)nn2)cnc1Cl [Example 28] |  |  | 3.9 | 100 | 100 |  |  |
| CC(C)NC(=O)c1cc(-c2cn(-c3c(Cl)cc(-c4ccccc4)cc3Cl)nn2)cnc1Cl [Example 29] |  |  | 3.8 |  | 100 |  |  |
| CCNC(=O)c1cc(-c2cn(-c3c(Cl)cc(-c4ccccc4)cc3Cl)nn2)cnc1Cl [Example 30] |  |  | 3.5 | 100 | 100 | 100 |  |
| CN(C(=O)c1cc(-c2cn(-c3c(Cl)cc(-c4ccccc4)cc3Cl)nn2)cnc1Cl)C1CC1 [Example 31] |  |  | 4.0 | 100 | 100 | 100 |  |
| O=C(NC1CC1)c1cc(-c2cn(-c3c(Cl)cc(-c4ccccc4)cc3Cl)nn2)cnc1Cl [Example 32] |  |  | 3.5 | 100 | 100 | 100 |  |
| O=C(NC1CC1)c1cc(-c2cn(-c3c(Cl)cc(C(F)(C(F)(F)F)C(F)(F)F)cc3OC(F)F)nn2)cnc1Cl [Example 36] |  |  | 3.7 |  |  |  |  |
| CN(C(=O)c1cc(-c2cn(-c3c(Cl)cc(C(F)(C(F)(F)F)C(F)(F)F)cc3OC(F)F)nn2)cnc1Cl)C1CC1 [Example 37] |  |  | 4.2 |  |  |  |  |
| N#CC1(NC(=O)c2cc(-c3cn(-c4c(Cl)cc(C(F)(C(F)(F)F)C(F)(F)F)cc4OC(F)F)nn3)cnc2Cl)CC1 [Example 38] |  |  | 3.7 |  |  |  |  |
